Experimental data from US20230321185A1, “METHOD FOR TREATMENT OF TYPE-1 DIABETES IN A SUBJECT IN NEED THEREOF” (priority 2021, published 2023).

Key:
Format in all cases: in vivo, Balb/c mice
[1] = Fasting blood sugar (FBS) in normal and STZ-induced type 1 diabetic mice; settings: STZ-induced type 1 diabetic mice, IP; for mean percentage of FBS changes decreased by: end of treatment, value is a decrease (untreated D4 increased by 49.23%)
Experimental: In a 14-day period, diabetes type 1 was induced in a group of mice via injecting multiple low doses of Streptozotocin (STZ). Also, the other group of mice received an equal volume of citrate buffer (pH 4.5) intraperitoneally (I.P.) in the same procedure that was called the normal group.
(§1) Each of the normal (N) (n=20) and diabetic (D) (n=20) groups was divided into four subgroups. The first group (N1 and D1) (n=5) received 6.7 mg/kg intraperitoneally growth hormone for two weeks. The second group (N2 and D2) (n=5) administrated 0.185 mg/kg intraperitoneally magainin II for approximately four weeks. The third group (N3 and D3) (n=5) first received 0.185 mg/kg of magainin II for four weeks, and then 6.7 mg/kg of growth hormone for two weeks. Finally, the fourth group (N4 and D4) (n=5) received only an equal volume of physiological saline instead of these treatments.
(§2) FBS measurements before the treatment and weekly during the treatment, and glucose tolerance test (GTT) at the end of the treatment were performed. The pancreatic tissue was quickly removed and placed in a cold phosphate buffer saline (PBS). Some of the extracted tissues for additional tests were stored in a freezer (−80° C.) and some were immersed in 4% paraformaldehyde (PFA) for immunohistochemical staining.
Diabetes type 1 was induced in a group of mice via injecting multiple low doses of Streptozotocin (STZ) (40 mg/kg, intraperitoneal) for five consecutive days. The STZ dissolved in the 50 mM sodium citrate buffer (pH 4.5) to a final concentration of 4 mg/ml, immediately prior to injection. Nine days after the last STZ injection, all the mice have their FBS (fasting blood sugar) over 200 mg/dl were considered as type 1 diabetic mice group.
(§3) FBS levels were measured after fasting mice for 6 h (7:00-13:00) with an Accu-Chek glucometer via tail vein. Also in the glucose tolerance test, six hours after the mice were deprived of food (7:00-13:00), the first FBS was measured and after that mouse administrated glucose (2 g/kg bodyweight, intraperitoneally), and then at the indicated time points post-injection, blood glucose levels were measured.
The fasting blood sugars of mice in all diabetic and normal groups were measured before the treatment and weekly during the treatments. At the end of the treatments, the percentage of FBS changes were calculated. The average percentage of FBS alterations in each group was then determined. Finally, the average result of each group was compared and analyzed with other groups by prism software.

[2] = Glucose tolerance test (GTT) at the end of the treatment; settings: for effect on blood glucose levels both in FBS and GTT: diabetic mice
Experimental: as §1, §2, §3

P-ERK = assay: Western blot of pancreatic P-ERK; settings: normal mice, vs N4 (saline)
Experimental: as §1
(§4) Proteins were extracted in RIPA buffer which are containing Tris-HCl buffer (100 mM, pH 7.5), ethylene diamine tetra acetic acid (EDTA, 10 mM), sodium pyrophosphate (10 mM), sodium fluoride (0.1 mM), sodium orthovanadate (10 mM), phenylmethylsulphonyl fluoride (PMSF, 2 mM), and aprotinin (10 mg/ml). The pancreas extracts were vortexed for 30 min frequently at 4° C. The homogenates were centrifuged at 12,000 rpm for 20 min at 4° C. The supernatants were stored in an −80° C. freezer. Total protein concentration was determined by the Lowry method. […]
(§5) All values are depicted as mean±SEM and considered significant if p<0.05. […] Data were analyzed using GraphPad Prism software and the results of groups were compared with the ANOVA test.

P-STAT5 = assay: Western blot of pancreatic P-STAT5; settings: for P-STAT5 expression increase in comparison with control group: diabetic mice, vs D4 (saline); for P-STAT5 expression increase compared with control group: normal mice, vs N4 (saline)
Experimental: as §1
(§6) Proteins were extracted in RIPA buffer which are containing Tris-HCl buffer (100 mM, pH 7.5), ethylene diamine tetra acetic acid (EDTA, 10 mM), sodium pyrophosphate (10 mM), sodium fluoride (0.1 mM), sodium orthovanadate (10 mM), phenylmethylsulphonyl fluoride (PMSF, 2 mM), and aprotinin (10 mg/ml). The pancreas extracts were vortexed for 30 min frequently at 4° C. The homogenates were centrifuged at 12,000 rpm for 20 min at 4° C. The supernatants were stored in an −80° C. freezer. Total protein concentration was determined by the Lowry method.
(§7) De-freeze sample was added to loading buffer and dithiothreitol 0.5 M solution, then heated for 5 min at 95° C. Sodium dodecyl sulfate-polyacrylamide gel electrophoresis (SDS PAGE) and then protein transfer to a polyvinylidene difluoride (PVDF) blotting membrane was performed. […] Finally, a result image was developed based on Western Blot-ECL ([…]) Development Protocol.
(§8) All values are depicted as mean±SEM and considered significant if p<0.05. The arbitrary optical density unit was acquired using ImageJ software (version 1.46). Data were analyzed using GraphPad Prism software and the results of groups were compared with the ANOVA test.

P-S6 = assay: Western blot of pancreatic P-S6 (mTOR pathway activity)
Experimental: as §1, §6, §7, §8
The activity of mTOR pathway was appraised by evaluating the changes in ribosomal P-S6 expression. As a downstream factor of the mTOR pathway, results of pancreatic P-S6 expression in all treated diabetic and normal mice were compared with their control groups. Therefore, changes in P-S6 expression proportionally reflects the activity of mTOR pathway. […] Consequently, GH pulsatile secretion and temporally treatment period in this study via transient increase in mTOR activity can induce and enhance anabolic growth during the treatment, such as cell growth, ribosomal biogenesis, and protein synthesis.

PAX4 = assay: Western blot of pancreatic PAX4; settings: normal mice, vs normal control group
Experimental: as §1, §4, §5

[3] = system: insulin+ and glucagon+ cells of pancreatic islets; assay: Immunohistochemistry of pancreas sections, insulin+ and glucagon+ cells; settings: type 1 diabetic mice
Experimental: as §1
Fixed tissue in 4% paraformaldehyde for 30 min at 4° C., embedded in paraffin and applied to slides. The prepared 6-μm sections were assayed as described previously. The following primary antibodies were used in these assays: rabbit anti-insulin antibody (ab63820) (1/500), mouse anti-glucagon antibody sc-514592 (1/500), mouse anti-vimentin antibody sc-6260 (1/500), rabbit recombinant anti-Ki67 (ab197547) (1/500), rat anti-CD3 antibody (ab11089) (1/500), mouse anti-CD19 antibody (sc-373897) (1/500). […]
as §5

Row | Substance | approximate improvement rate of fasting blood sugar in comparison with untreated control diabetic group [1] [%] | mean percentage of FBS changes decreased by [1] [%] | effect on blood glucose levels both in FBS and GTT [2] | blood sugar course in GTT ([2]; normal mice, glucose 2 g/kg IP) | P-ERK expression increase in comparison with control group (P-ERK) | P-STAT5 expression increase in comparison with control group (P-STAT5) | P-STAT5 expression increase compared with control group (P-STAT5) | P-S6 expression increase in comparison with control group (P-S6; diabetic mice, vs D4 (saline)) | P-S6 expression increase in comparison with control group (P-S6; normal mice, vs N4 (saline)) | Pax4 expression increase in comparison with control group (PAX4) [%] | beta cell regeneration [3]
1 | GH: Human Growth Hormone produced by EXIR under the brand name Exitropin 4 IU (1.3 mg) (Somatropin), lyophilized powder | ~57.43 | 8.2 | less attenuating effect | higher than in other normal groups | no significant difference | not statistically significant | slight and non-significant increase | no significant difference | slight and not significant | ~135 | effective beta cell regeneration
2 | GIGKFLHSAKKFGKAFVGEIMNS (listed as Xenopus laevis) [magainin, cationic, amphipathic, a-helical antimicrobial peptide with twenty-three amino acids, synthesized by Biomatik] | ~97.13 | 47.9 | greatest effect on reducing blood sugar |  | no significant difference | not statistically significant | slight and non-significant increase | no significant difference | slight and not significant | ~125 | effective beta cell regeneration
